Source: publication PMC7604311, “Caprine Bactenecins as Promising Tools for Developing New Antimicrobial and Antitumor Drugs” (Frontiers in Cellular and Infection Microbiology, 2020)
Ends that are not written are not given here.

Columns and labels:
[1] = tested on: E. coli ML-35p; assay: Broth microdilution assay (MIC); type: cell-based, Escherichia coli; conditions: 50% MH broth/50% 10 mM Na-P buffer pH 7.4 with 0.1% BSA, 1×10^6 CFU/ml, 20 h, median of 3–6 independent experiments in triplicate
Protocol: The minimal inhibitory concentrations (MIC) of peptides were determined using microdilution assay in Müller–Hinton (MH) broth in general accordance with the guidelines of the European Committee for Antimicrobial Susceptibility Testing. Test plates were additionally pretreated with 0.1% bovine serum albumin (BSA) in distilled H2O (incubated for 1 h at 37°C) to reduce possible non-specific binding of peptides to the plastic surface of the wells, as proposed for AMP activity measuring ([Tossi et al., 1997]; [Wiegand et al., 2008]). Two-fold serial dilutions of peptides starting with 2 × stock concentration were prepared in sterile 10 mM sodium phosphate (Na-P) buffer, pH 7.4, with 0.1% BSA. Thus, final solutions contained 50% of Na-P diluted peptide and 50% of MH broth with bacteria. Bacteria for testing were grown overnight, then transferred into a fresh portion of 2.1% MH medium and additionally incubated for 2–3 h to obtain bacterial culture in its mid-logarithmic growth phase, which was diluted down to the final concentration of 1 × 10^6 CFU/ml. Concentration of bacteria in growth medium was calculated based on its absorbance at 620 nm.
After 20 h of incubation of AMPs with bacteria MICs were determined as lowest concentrations of AMPs completely preventing the visible growth of bacteria. Tests were performed in 60-well Terasaki microplates (10 µl end volume, V-shaped bottom; Sarstedt, Germany); dilutions in each test were made in triplicate. Final MIC values were calculated as medians based on the results of 3–5 independent experiments.

[2] = MTT test; type: cell-based; conditions: human, serum-free RPMI-1640, overnight incubation, mean ± SD of three independent tests, read-out: IC50 of cytotoxic action toward human PBMC
Protocol: Cytotoxic activity of peptides toward various types of eukaryotic cells was assessed using the standard MTT [3-(4,5-Dimethylthiazol-2-yl)-2,5-diphenyltetrazolium bromide] test ([Mosmann, 1983]). Human peripheral blood mononuclear cells (PBMC) were isolated from the peripheral blood of healthy donors. Whole heparinized blood diluted 3-fold with sterile PBS was carefully layered upon the 5 ml of the sterile Ficoll-400 (Pharmacia, Sweden) with a density of 1.077 in a sterile 50 ml conical tube and then centrifuged at 600 g and 4°C for 40 min. The mononuclear “ring” remaining above the Ficoll was collected using a transfer pipette and placed in another tube. Cells were washed twice with sterile PBS, resuspended in RPMI-1640 culture medium and immediately used for the test. Tumor cell lines were purchased from Biolot (Saint Petersburg, Russia) and cultured at 37°C and 5% CO2 in RPMI-1640 medium (Biolot, Saint Petersburg, Russia) supplemented with 10% fetal bovine serum, glutamine, and penicillin-streptomycin combination. For the experiments, cells were washed from the medium they were growing in and resuspended in serum- and antibiotic-free RPMI-1640. Cells were added at not less than 2 × 10^4 per well in sterile flat bottom 96-well microplates containing serial dilutions of tested peptides in RPMI-1640. For the positive control (100% viable cells), RPMI-1640 medium was used instead of the peptide solution, whereas for the negative control (0% viable cells) medium replaced both peptide and cells. Test plates were incubated at 37°C and 5% CO2 overnight, after which MTT metabolic marker in PBS (5 mg/ml) was introduced into each well. After an additional 4 h incubation, the reaction was stopped by adding isopropanol supplemented with 0.04 M HCl, in which the formazan crystals (formed as a result of MTT reduction in presence of metabolically active cells) were dissolved, and OD at 540 nm was measured. Background absorbance at 690 nm was subtracted from the results to countervail any unspecific OD fluctuations. The % of surviving cells was found as:
(2) Survival(%)=(ODsample−OD0% viable)/(OD100% viable−OD0% viable)×100%,
where ODsample, OD0% viable, and OD100% viable are respectively values of the OD at 540 nm minus the OD at 690 nm for the test sample and negative or positive controls. IC50 toxicity values were determined by nonlinear regression analysis of the dose response curves using Sigma Plot 11 (Systat Software Inc., USA). The experiments were repeated three times, with 3 parallels of samples and 4–6 parallels of controls each time.

[3] = tested on: P. aeruginosa MDR 522/17; type: cell-based, Pseudomonas aeruginosa; conditions: MDR 522/17, 24 h
Protocol: (§1) Quantification of the biofilms forming in the presence of various concentrations of tested AMPs was performed using the crystal violet assay according to general guidelines ([Merritt et al., 2006]). Tests were performed in polystyrene 96-well plates with U-shaped bottom. Peptides were serially diluted in a bacterial growth medium (MH for A. baumannii or TSB for P. aeruguinosa) in a volume of 50 μl per well. Overnight cultures of tested bacteria in a stationary phase of growth were 50 times diluted and introduced into the experimental wells at the same volume of 50 μl. Samples were incubated for 24 h at 37°C. The content of the wells was then shacked out, the plates were gently washed from unattached planktonic bacteria in still water (poured into a large enough vessel); bacterial cells and matrix components adhered to the walls of the wells were stained with a 0.1% aqueous solution of crystal violet dye: 125 μl of dye solution was put into each well and incubated at room temperature for 10 min. After staining dye solution was removed, the plates were washed with clean water and allowed to air-dry. Finally, the bound dye was redissolved by adding 200 μl of 30% acetic acid into each well, incubating it for 15 min at room temperature, and then thoroughly mixing the content of the wells by pipetting. One hundred and twenty five microliters of crystal violet extract from each well were transferred into a flat-bottomed microtiter plate, and the optical density was measured at a wavelength of 560–595 nm (depending on the maximum of absorption in a particular experiment). Experimental samples were made in quadruplicates, and there were 8–9 repeats of control samples without peptides in each test. Presented results are medians calculated based on 3 independent experiments.

[4] = tested on: human erythrocytes; conditions: cited from earlier work
From the text: The majority of AMPs are membranolytic, and even though eukaryotic cell membranes are less anionic than those of bacterial cells, have a lower membrane potential and are protected by the presence of cholesterol ([Matsuzaki, 2009]), they are considered to be a secondary target, affecting the selectivity of AMPs. […] The hemolysis assay is widely utilized for the express analysis of the toxic properties of AMPs, relating to their membranolytic activity. It was previously shown that na ...

[5] = tested on: A. baumannii 7226/16; type: cell-based, Acinetobacter baumannii; conditions: 7226/16, 24 h
Protocol: as §1, with “After staining dye solution was removed, the plates were washed with clean water and allowed to air-dry. Finally, the bound dye was redissolved by adding 200 μl of 30% acetic acid into each well, incubating it for 15 min at room temperature, and then thoroughly mixing the content of the wells by pipetting.” left out, “Experimental samples were made in quadruplicates, and there were 8–9 repeats of control samples without peptides in each test.” left out

[6] = tested on: S. aureus 1399/17; set-up: key to Susceptibility category: R – resistant; I – intermediate; S – susceptible; conditions: initial susceptibility testing of the clinical isolate; ref supplying institutions; cited from earlier work
[7] = tested on: P. aeruginosa MDR 522/17; set-up: key to Susceptibility category: R – resistant; I – intermediate; S – susceptible; conditions: initial susceptibility testing of the clinical isolate; ref supplying institutions; cited from earlier work
[8] = tested on: K. pneumoniae ESBL 344/17; set-up: key to Susceptibility category: R – resistant; I – intermediate; S – susceptible; conditions: initial susceptibility testing of the clinical isolate; ref supplying institutions; cited from earlier work;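 also: each antibiotic is scored as S (susceptible), I (intermediate) or R (resistant), with its MIC listed alongside, in a susceptibility profile of the clinical isolate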
[9] = tested on: E. coli ESBL 521/17; set-up: key to Susceptibility category: R – resistant; I – intermediate; S – susceptible; conditions: initial susceptibility testing of the clinical isolate; ref supplying institutions; cited from earlier work
[10] = tested on: A. baumannii 7226/16; set-up: key to Susceptibility category: R – resistant; I – intermediate; S – susceptible; conditions: initial susceptibility testing of the clinical isolate; ref supplying institutions; cited from earlier work
From the text: page 1: Supplementary Material Supplementary Table 1. Susceptibility profiles of tested clinical isolates of bacteria. Gram-negative: Gram-positive: antibiotic E. coli A. baumannii P. aeruginosa K. pneumoniae antibiotic S. aureus ESBL 521/17 7226/16 MDR 522/17 ESBL 344/17 1399/17 AMP* R [≥32] R [≥32 ] R [≥32 ] R [≥32] AMP* R [≥32 ] AMC R [16] - - S [≤2] AMC - CTX R [≥64] - - S [≤1] AMX - CAZ R [≥64] - R [≥64] S [≤1] AZM R [≥4] FEP R [≥64] - R [≥64] S [≤1] VAN S [≤2] ATM R [≥64] - - S [≤1] DOX I [2] IPM S [≤1] R [≥16] I [8] S [≤1] CLI I [2] MEM S [≤0.25 ] R [≥32 ] R [≥16] S [≤0.25] MEM I [4] AM ...

RFRLPFRRPPIRIPPPFYPPFRRFL-NH2 [ChBac3.4(Н-)]
MIC [1]: 4 µM
IC50 [2]: 34.7 ± 7.3 µM

RFRRFRLPFRRIHPPPFVRIHPPPFYRRFL-NH2 [RFR-ChBac3.4-1-NH2]
MIC [1]: 4 µM
IC50 [2]: 18.3 ± 4.1 µM
Biofilm inhibition [3]: 62 ± 1.5%

RFRLPFRRPPIRIHPPPFYPPFRRFL-NH2 [ChBac3.4-NH2]
MIC [1]: 2 µM
Hemolytic activity [4]: not hemolytic
IC50 [2]: 18.6 ± 0.8 µM
Biofilm inhibition [3]: 63 ± 9%
Biofilm inhibition [5]: 56 ± 12%

RFRLPFRRPWPIRIHPPPFYPWPFRRFL [ChBac3.4-2-COOH]
MIC [1]: 4 µM
IC50 [2]: 20.2 ± 4.5 µM

RFRLPFRRIHPPPFVRIHPPPFYRRFL-NH2 [ChBac3.4-1-NH2]
MIC [1]: 4 µM
IC50 [2]: 12.1 ± 0.8 µM

NCC[C@H](O)C(=O)N[C@@H]1C[C@H](N)[C@@H](O[C@H]2O[C@H](CN)[C@@H](O)[C@H](O)[C@H]2O)[C@H](O)[C@H]1O[C@H]1O[C@H](CO)[C@@H](O)[C@H](N)[C@H]1O [AMK, amikacin]
MIC of antibiotic [6]: ≥ 64 µg/mL
Susceptibility category [6]: R
MIC of antibiotic [7]: 4 µg/mL
Susceptibility category [7]: I
MIC of antibiotic [8]: ≤ 2 µg/mL
Susceptibility category [8]: S
MIC of antibiotic [9]: 16 µg/mL
Susceptibility category [9]: I
MIC of antibiotic [10]: 8 µg/mL
Susceptibility category [10]: I

C[C@@H](O)[C@H]1C(=O)N2C(C(=O)O)=C(S[C@@H]3CN[C@H](C(=O)N(C)C)C3)[C@H](C)[C@H]12 [MEM, meropenem]
MIC of antibiotic [6]: 4 µg/mL
Susceptibility category [6]: I
MIC of antibiotic [7]: ≥ 16 µg/mL
Susceptibility category [7]: R
MIC of antibiotic [8]: ≤ 0.25 µg/mL
Susceptibility category [8]: S
MIC of antibiotic [9]: ≤ 0.25 µg/mL
Susceptibility category [9]: S
MIC of antibiotic [10]: ≥ 32 µg/mL
Susceptibility category [10]: R
